US20230346820A1, “METHODS AND COMPOSITIONS FOR THE TREATMENT OF SARS-COV-2” (priority 2020, published 2023)
Counter-ions that a name gives are not always drawn. Like-named read-outs stand apart in the source and are kept apart here.

Columns and labels:
SARS-CoV-2 [1] = test: microbe, parasite or virus in culture; details: Severe acute respiratory syndrome coronavirus 2, Calu-3, 48 h, read-out: Calu-3 CoV-2 EC50 [μM]
SARS-CoV-2 [2] = details: Table 4
SARS-CoV-2 [3] = tested on: SARS-CoV-2
in vitro [4] = details: human
SARS-CoV-2 [5] = test: microbe, parasite or virus in culture
in vitro [6] = details: human; remark: listed apart in the source
Method: To assess cell viability, 2 μL of 50% Cell-Titer Glo (Promega No G7573) diluted in water was added to the cells and luminescence measured on an EnVision Plate Reader (Perkin Elmer).
Data analysis. […] Primary in vitro screen and the host cell cytotoxicity counter screen data were uploaded to Genedata Screener, Version 16.0.3-Standard. […] For the uninfected host cell cytotoxicity counter screens, 40 μM puromycin (Sigma) was used as the positive (inhibitory) control in HeLa-ACE2, HepG2 and HEK293T cells, and 30 μM puromycin (Sigma) was used as the positive (inhibitory) control for Calu-3 cells. For dose response experiments compounds were tested in technical triplicates on different assay plates and dose curves were fitted with the four parameter Hill Equation. Technical replicate data were analyzed using median condensing. Geometric means and geometric standard deviations are reported for compound activities (EC50s and CC50s) obtained in multiple independent biological experiments. […] Geometric means were calculated by computing the logarithm (base 10) of all values, calculating the mean of these logarithms, and taking the antilog of that mean. Geometric standard deviations were computed by taking the standard deviation of the log-transformed individual values and taking the antilog of that standard deviation. The geometric standard deviation is a unitless ratio and reported as ×÷ instead of +/−.

[7] = HeLa-ACE2 Uninfected Tox CC50 [μM], Table 4, aggregated data, Geomean, n = 3
[8] = Severe acute respiratory syndrome coronavirus 2, HeLa-ACE2, read-out: HeLa-ACE2 CoV-2 EC50 [μM], Table 4, aggregated data, Geomean, n = 3
[9] = Severe acute respiratory syndrome coronavirus 2, HeLa-ACE2, read-out: HeLa-ACE2 CoV-2 EC50 [μM]

| Structure (SMILES) | EC50 (SARS-CoV-2 [1]) [µM] | HeLa-ACE2 SI CC50/CoV-2 EC50 (SARS-CoV-2 [2]) | Calu3 SI CC50/CoV-2 EC50 (SARS-CoV-2 [3]; Table 4) | CC50 (in vitro [4]; [7]) [µM] | EC50 (SARS-CoV-2 [5]; [8]) [µM] | CC50 (in vitro [6]) [nM] | CC50 (in vitro [4]) [µM] | EC50 (SARS-CoV-2 [5]; [9]) [µM] | CC50 at 48 h (in vitro [6]) [nM] | Calu3 SI CC50/CoV-2 EC50 (SARS-CoV-2 [3]) | CC50 (in vitro [4]; HeLa-ACE2 Uninfected Tox CC50 [μM]) [µM] |
| --- | --- | --- | --- | --- | --- | --- | --- | --- | --- | --- | --- |
| N=C(N)c1ccc2cc(OC(=O)c3ccc(CNC(=O)CCCC(=O)O)o3)ccc2c1 [TO-195] | 0.657 | >6 | >45 | > 39.8 | > 9.59 | > 29900 | – | – | – | – | – |
| CNC(=O)n1ccc2cc(Oc3ccnc(NC(=O)c4ccc(C5CCN(CCO)CC5)cc4)c3)c(OCCOC)cc21 [E-7090] | 0.753 | 8.01 | 19.88 | 21.2 | 2.65 | 15000 | – | – | – | – | – |
| CSc1ccc(CN2CCCC(Nc3ccc4[nH]ncc4c3)C2)cc1 (stereo not drawn) [INS-117548] | > 3.55 | 4.15 | >8.42 | > 39.8 | – | > 29900 | – | – | – | – | – |
| Nc1ncnc2c1ccn2[C@@H]1O[C@H](CO)[C@@H](O)[C@H]1O [TUBERCIDIN] | 0.111 | 3.04 | 9.68 | 0.557 | 0.183 | 1070 | – | – | – | – | – |
| CC1OC(O[C@H]2CC[C@@]3(C=O)[C@H](CC[C@@H]4[C@@H]3CC[C@]3(C)[C@@H](C5=CC(=O)OC5)CC[C@]43O)C2)C(O)C(O)C1O (stereo partly drawn) [Peruvoside (analog)] | 0.251 | 1.40 | 5.61 | 0.345 | 0.246 | 1410 | – | – | – | – | – |
| CC(C)(C)c1ccc(CSc2cnn(C(C)(C)C)c(=O)c2Cl)cc1 [PYRIDABEN] | 0.205 | – | 43.89 | > 39.8 | – | 8990 | – | – | – | – | – |
| CO[C@H]1[C@@H](O)C[C@H](O[C@H]2[C@@H](O)C[C@H](O[C@H]3[C@@H](O)C[C@H](O[C@H]4CC[C@@]5(C)[C@H](CC[C@@H]6[C@@H]5C[C@@H](O)[C@]5(C)[C@@H](C7=CC(=O)OC7)CC[C@]65O)C4)O[C@@H]3C)O[C@@H]2C)O[C@@H]1C [Metildigoxin] | 0.399 | 0.56 | 6.22 | – | – | – | 0.159 | 0.284 | 1240 | – | – |
| CC(=O)N1C[C@H](O)C[C@H]1C(=O)N[C@@H](CCCNC(=N)N)C(=O)c1nc2ccccc2s1 [RWJ-56423] | 1.23 | – | >24 | > 39.8 | – | > 29900 | – | – | – | – | – |
| CC(=O)O[C@H]1C[C@H](O[C@H]2[C@@H](O)C[C@H](O[C@H]3[C@@H](O)C[C@H](O[C@H]4CCC5(C)[C@H](CC[C@@H]6[C@@H]5CCC5(C)[C@@H](C7=CC(=O)OC7)[C@@H](O)CC65O)C4)O[C@@H]3C)O[C@@H]2C)O[C@H](C)[C@H]1O[C@@H]1O[C@H](CO)[C@@H](O)[C@H](O)[C@H]1O (stereo partly drawn) [[…]] | 0.688 | 2.175 | 4.90 | 1.75 | 0.803 | 3370 | – | – | – | – | – |
| O=c1[nH]ccc2cc(OC3CCNCC3)ccc12 [SAR-407899] | > 3.85 | 4.03 | >7.77 | > 38.7 | – | > 29900 | – | – | – | – | – |
| C#C[C@]1(O)CC[C@H]2[C@@H]3CCc4cc(OS(=O)(=O)C(C)C)ccc4[C@H]3CC[C@@]21C [ethinyl estradiol sulfonate] | 1.23 | – | 5.59 | 20.4 | > 9.59 | 6860 | – | – | – | – | – |
| CC[C@@H]1/C=C/C=C/C[C@H](C)[C@@H](O)[C@](C)(O)C(=O)[C@H](C)[C@@H](O)[C@H](C)C(=O)[C@H](C)[C@@H](O)[C@H](C)/C=C/C(=O)O[C@H]2[C@@H](C)[C@@H](CC1)O[C@]1(O[C@H](C[C@H](C)O)[C@H](C)CC1=O)[C@@H]2C [Oligomycin B] | 0.005 | – | 4539.49 | – | – | – | – | – | 24500 | – | – |
| COC1CC(OC2CCC3(C=O)[C@H]4CCC5(C)C(C6=CC(=O)OC6)CCC5(O)[C@@H]4CCC3(O)C2)OC(C)C1O (stereo partly drawn) [CYMARINE] | 0.135 | 1.21 | 43.53 | 0.287 | 0.237 | 5870 | – | – | – | – | – |
| NC(N)=Nc1ncc(Cl)c2ccc(-c3cccc(C(=O)O)c3)cc12 [UK-356202] | 1.92 | – | >15 | > 39.8 | – | > 29900 | – | – | – | – | – |
| CC(=O)O[C@H]1C[C@H](O[C@H]2[C@@H](O)C[C@H](O[C@H]3[C@@H](O)C[C@H](O[C@H]4CC[C@@]5(C)[C@H](CC[C@@H]6[C@@H]5C[C@@H](O)[C@]5(C)[C@@H](C7=CC(=O)OC7)CC[C@]65O)C4)O[C@@H]3C)O[C@@H]2C)O[C@H](C)[C@H]1O[C@@H]1O[C@H](CO)[C@@H](O)[C@H](O)[C@H]1O [LANATOSIDE] | 0.194 | 6.56 | 31.97 | 1.35 | – | 6210 | – | – | – | – | – |
| C=C(C)[C@]12C[C@@H](C)[C@@]34O[C@](Cc5ccccc5)(O[C@@H]1[C@@H]3C=C(COC(=O)Cc1ccc(O)c(OC)c1)C[C@]1(O)C(=O)C(C)=C[C@@H]41)O2 [Resiniferatoxin] | 0.903 | 5.53 | 19.13 | – | – | – | 7.17 | 1.3 | 17300 | – | – |
| CC(=N)N1CCC(Oc2ccc(N(Cc3ccc4ccc(C(=N)N)cc4c3)S(=O)(=O)CC(=O)O)cc2)CC1 [YM 60828] | 3.38 | – | >9 | > 39.8 | – | > 29900 | – | – | – | – | – |

| Structure (SMILES) | EC50 (SARS-CoV-2 [1]) [µM] | HeLa-ACE2 SI CC50/CoV-2 EC50 (SARS-CoV-2 [2]) | Calu3 SI CC50/CoV-2 EC50 (SARS-CoV-2 [3]; Table 4) | CC50 (in vitro [4]; [7]) [µM] | EC50 (SARS-CoV-2 [5]; [8]) [µM] | CC50 (in vitro [6]) [nM] | CC50 (in vitro [4]) [µM] | EC50 (SARS-CoV-2 [5]; [9]) [µM] | CC50 at 48 h (in vitro [6]) [nM] | Calu3 SI CC50/CoV-2 EC50 (SARS-CoV-2 [3]) | CC50 (in vitro [4]; HeLa-ACE2 Uninfected Tox CC50 [μM]) [µM] |
| --- | --- | --- | --- | --- | --- | --- | --- | --- | --- | --- | --- |
| O=c1[nH]c(=O)n([C@@H]2O[C@H](CO)[C@@H](O)[C@H]2O)cc1F [Analog of OGT-719] | 1.17 | 0.03 | 7.44 | 0.109 | 4.02 | 8730 | – | – | – | – | – |
| CCCCCCCC/C=C/CCCCCCCC(=O)OC[C@H]1O[C@@H](n2ccc(N)nc2=O)C(F)(F)[C@@H]1O [Gemcitabine elaidate] | 0.324 | – | >92 | 6.01 | > 9.59 | > 29900 | – | – | – | – | – |
| CC(C)(O)c1ccccc1-c1ccc2[nH]c(/C=C/c3ccc(C(F)(F)F)cc3)nc2c1 [Mavatrep] | 2.66 | – | 5.50 | 22.5 | > 9.59 | 14600 | – | – | – | – | – |
| CCCCCCC1C(=O)O[C@H](C)[C@H](NC(=O)c2cccc(NC=O)c2O)C(=O)O[C@@H](C)[C@@H]1OC(=O)CC(C)C (stereo partly drawn) [Antimycin A] | 0.028 | – | 22.00 | > 39.8 | > 9.59 | 608 | – | – | – | – | – |
| Sc1ncnc2nc[nH]c12 [Mercaptopurine] | 0.197 | 5.51 | 6.95 | 19.6 | 3.57 | 1370 | – | – | – | – | – |
| Cn1c(C#N)ccc1-c1ccc2c(c1)C(C)(C)OC(=S)N2 [tanaproget] | 2.44 | 0.91 | 7.99 | 0.128 | 0.141 | 19300 | – | – | – | – | – |
| O=C(Nc1ccc(Cl)c(S(=O)(=O)N2CCNCC2)c1O)Nc1cccc(F)c1Cl [Elubrixitosylate] | 6.91 | 4.35 | >4.28 | > 39.8 | – | > 29600 | – | – | – | – | – |
| N=C(N)Nc1ccc(C(=O)Oc2ccc(S(N)(=O)=O)cc2)cc1 [Ono-3307] | 1.6 | – | >16 | > 39.8 | – | > 29900 | – | – | – | – | – |
| COCc1c(C(C)C)nc(C(C)C)c(/C=C/[C@@H](O)C[C@@H](O)CC(=O)O)c1-c1ccc(F)cc1 [cerivastatin (sodium salt)] | 0.348 | – | >85 | 0.308 | – | > 29900 | – | – | – | – | – |
| O[C@@H]1CO[C@H]2[C@@H]1OC[C@H]2Oc1nc2nc(-c3ccc(-c4ccccc4)cc3)c(Cl)cc2[nH]1 [MK-8722] | 2.73 | – | >10 | 37.4 | – | > 29900 | – | – | – | – | – |
| N#Cc1cccc(C(C(=O)NCC(c2ccccc2)c2ccccc2)N(CCc2c[nH]cn2)C(=O)c2ccccc2C(=O)c2ccccc2)c1 (stereo not drawn) [GENZ-29155] | > 4.66 | 4.01 | >6.41 | > 38.5 | – | > 29900 | – | – | – | – | – |
| CC(N)c1ccc(C(=O)Nc2ccncc2)cc1-c1ccc(F)cc1 (stereo not drawn) [AMA-0076] | 3.87 | – | >16 | 35.8 | > 9.59 | > 29900 | – | – | – | – | – |
| CCc1ccc(C2=CC(C)(C)Sc3ccc(C#Cc4ccc(C(=O)O)cc4)cc32)cc1 [AGN-194310] | 0.597 | – | – | – | – | > 29900 | – | – | – | >50 | > 39.8 |
| CC/C(=C(/c1ccc(/C=C/C(=O)O)cc1)c1ccc2[nH]ncc2c1)c1ccc(F)cc1Cl [ARN-810] | 1.1 | – | 21.60 | 11 | – | 23800 | – | – | – | – | – |
| O=C(c1ccccc1)c1cccc(NC(=O)c2ccn3c2CSC3c2cccnc2)c1 (stereo not drawn) [TULOPAFANT] | 2.92 | – | 5.01 | 36.6 | > 9.59 | 14600 | – | – | – | – | – |
| CC[C@@H]1/C=C/C=C/C[C@H](C)[C@@H](O)[C@](C)(O)C(=O)[C@H](C)[C@@H](O)[C@H](C)C(=O)[C@H](C)[C@@H](O)[C@H](C)/C=C/C(=O)O[C@H]2[C@@H](C)[C@@H](CC1)O[C@@]1(CC[C@@H](C)[C@@H](C[C@H](C)O)O1)[C@@H]2C [OLIGOMYCINA] | 0.007 | – | >4000 | 36 | > 9.59 | > 29900 | – | – | – | – | – |
